Patent publication US11976054B2, “Amide derivative and preparation method therefore and use thereof in medicine” (Chengdu Baiyu Pharmaceutical Co., Ltd., priority 2019, dated 2024)

Columns and labels:
[1] = system: Human monocyte cell line THP-1; test: Detection of THP-1 cell pyroptosis (Caspase-Glo 1 Inflammasome Assay); type: cell-based; settings: 20 nM PMA 48 h, 1 μg/mL LPS, compound 3 h
Outline: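 Differentiated with 20 nM PMA for 48 h (50,000 cells/well), then given serum-free medium with 1 μg/mL LPS and compound in a 10-point, 3-fold series from 10 μM for 3 h at 37 °C. Caspase-1 activity read with Caspase-Glo 1 Inflammasome kit; IC50 calculated.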

[2] = system: IL-1β release in human PBMCs; test: Assay of IL-1β release in human PBMCs; type: cell-based; settings: 10 ng/mL LPS 3 h, compound 0.5 h, 5 mM ATP 1 h, ELISA
Description: 5 mL of human venous whole blood from a healthy donor was placed in a Li-heparin tube. PBMCs were isolated and incubated in a culture medium containing 10 ng/mL LPS at 37° C./5% CO2 for 3 h. Cells were plated in a 96-well plate at 50 μL per well. 25 μL of compound or solvent control was added to each well and 3-fold diluted in gradient from a maximum concentration of 10 μM, and 8 gradient concentrations were set. The mixtures were incubated for 0.5 h. 25 μL of ATP at a final concentration of 5 mM was added to each well, and the resulting mixtures were incubated for 1 h. After the incubation, the mixtures were centrifuged at 1500 rpm for 20 min, and the supernatant was collected to detect the expression level of […] by ELISA (BD, Human IL-1β ELISA Set II, Cat #557953). IC50 was calculated using GraphPad Prism7.0 software. The results are shown in Table 2, which indicate that: the compounds disclosed herein down-regulate release of mature IL-1β by inhibiting the activity of Caspase-1, and the IC50 is <50 nM.

[3] = Pharmacokinetic analysis of compounds in rats; type: in vivo, SD rats; settings: for F %: po 10 mg/kg vs iv 1 mg/kg
Description: Healthy adult SD rats weighing 180-220 g were fasted (free access to water) overnight and divided into tail vein administration group and intragastric administration group. The tail vein administration group was subjected to blood collection of 0.1 mL from orbital venous plexus before the administration and 5 min, 15 min, 0.5 h, 1 h, 2 h, 4 h, 8 h, 12 h and 24 h after the administration, and plasma was separated out by centrifugation at 4° C. for 5 min and stored at −20° C. for test. The intragastric administration group was subjected to blood collection of 0.1 mL from orbital venous plexus before the administration and 5 min, 15 min, 0.5 h, 1 h, 2 h, 4 h, 8 h, 12 h and 24 h after the administration, and the subsequent treatment procedures were the same as those of the tail vein injection group. The concentration of parent drug in the plasma was determined by LC-MS/MS.

[4] = Homo sapiens, THP-1, THP-1 pyroptosis
[5] = SD rats, iv (tail vein), 1 mg/kg, plasma
[6] = SD rats, po (intragastric), 10 mg/kg, plasma

## C[C@@H](c1cc(F)c2c(c1NC(=O)N[S@@](=N)(=O)c1cc(C(C)(C)O)co1)CCC2)C1CC1 (mixture of isomers) [Compound 42-1, (R)- and (S)-N-((5-((R)-1-cyclopropylethyl)-7-fluoro-2,3-dihydro-1H-inden-4-yl)carbamoyl)-4-(2-hydroxypropan-2-yl)furan-2-sulfonimidamide]
[1]; [4]
  IC50: 0.1 to 0.5 µM
[2]; PBMC
  IC50: 0.0185 µM

## CC(c1ccc2c(c1NC(=O)NS(=N)(=O)c1cc(C(C)(C)O)co1)CC2)C1CC1 (racemic) [Compound 36-1, (RS, SC)- and (SS, SC)-N-((3-(1-cyclopropylethyl)bicyclo[4.2.0]octa-1(6),2,4-trien-2-yl)carbamoyl)-4-(2-hydroxypropan-2-yl)furan-2-sulfonimidamide]
[1]; THP-1 pyroptosis
  IC50: ≤ 0.1 µM
[3]; [5]
  AUC: 14.614 µg·h/mL
  Cl: 0.078 L/h/kg
  Vss: 0.22 L/kg
  t1/2: 3.9 h
[3]; SD rats
  F %: 98.5%
[3]; [6]
  AUC: 143.938 µg·h/mL
  Cmax: 33.467 µg/mL
  t1/2: 2.9 h

## C[C@@H](c1ccc2c(c1NC(=O)NS(=N)(=O)c1cc(C(C)(C)O)co1)CCC2)C1CCC1 (mixture of isomers) [Compound 80-2, (RS)- and (SS)-N-((5-((R)-1-cyclobutylethyl)-2,3-dihydro-1H-inden-4-yl)carbamoyl)-4-(2-hydroxypropan-2-yl)furan-2-sulfonimidamide]
[1]; THP-1 pyroptosis
  IC50: ≤ 0.1 µM
[2]
  IC50: 0.0148 µM

## CC(C)(O)c1coc(S(=N)(=O)NC(=O)Nc2c(CC3CCC3)ccc3c2CCC3)c1 (single isomer, unassigned) [Compound 18-1, RS- and SS-N-((5-(cyclobutylmethyl)-2,3-dihydro-1H-inden-4-yl)carbamoyl)-4-(2-hydroxypropan-2-yl)furan-2-sulfonimidamide]
[1]; THP-1 pyroptosis
  IC50: 0.5 to 1 µM
[3]; rat, in vivo, iv, 1 mg/kg
  AUC: 2.226 µg·h/mL
  Cl: 0.455 L/h/kg
  Vss: 0.845 L/kg
  t1/2: 2.2 h
[3]; rat, in vivo, po, 10 mg/kg
  AUC: 20.153 µg·h/mL
  Cmax: 9.867 µg/mL
  t1/2: 2.9 h

## Cc1oc(S(=N)(=O)NC(=O)Nc2c(C(C)C3CC3)ccc3c2CCC3)cc1C(C)(C)O (single isomer, unassigned) [Compound 24-2, RS- and SS-N-((5-(1-cyclopropylethyl)-2,3-dihydro-1H-inden-4-yl)carbamoyl)-4-(2-hydroxypropan-2-yl)-5-methylfuran-2-sulfonimidamide]
[1]; THP-1 pyroptosis
  IC50: ≤ 0.1 µM
[2]
  IC50: 0.0174 µM

## [2H]c1cc([C@@H](C)C2CC2)c(NC(=O)NS(=N)(=O)c2cc(C(C)(C)O)co2)c2c1CCC2 (single isomer, unassigned) [Compound 32-2, (RS, SC)- and (SS, SC)-N-((5-(1-cyclopropylethyl)-2,3-dihydro-1H-inden-4-yl-7-d)carbamoyl)-4-(2-hydroxypropan-2-yl)furan-2-sulfonimidamide]
[1]; THP-1 pyroptosis
  IC50: ≤ 0.1 µM
[2]; PBMC
  IC50: 0.0289 µM

## C[C@@H](c1cc(F)c2c(c1NC(=O)N[S@@](=N)(=O)c1cc(C(C)(C)O)co1)CCC2)C1CC1 (single isomer, unassigned) [Compound 42-2]
[1]; [4]
  IC50: ≤ 0.1 µM
[3]; SD, rat, in vivo, iv, 1 mg/kg
  AUC: 1.98 µg·h/mL
  Vd: 0.503 L/kg
  clearance: 0.516 L/h/kg
  half-life: 0.79 h
[3]; SD, rat, in vivo, po
  bioavailability: 87.2%
[3]; SD, rat, in vivo, po, 10 mg/kg
  AUC: 17.3 µg·h/mL
  Cmax: 8.5 µg/mL
  half-life: 2.1 h
[2]; PBMC
  IC50: 0.0032 µM

## C[C@H](c1cc(F)c2c(c1NC(=O)N[S@@](=N)(=O)c1cc(C(C)(C)O)co1)CCC2)C1CC1 (single isomer, unassigned) [Compound 44-2]
[1]; [4]
  IC50: ≤ 0.1 µM
[3]; SD, rat, in vivo, iv, 1 mg/kg
  AUC: 1.62 µg·h/mL
  Vd: 0.537 L/kg
  clearance: 0.63 L/h/kg
  half-life: 0.93 h
[3]; SD, rat, in vivo, po
  bioavailability: 89.1%
[3]; SD, rat, in vivo, po, 10 mg/kg
  AUC: 14.5 µg·h/mL
  Cmax: 6.38 µg/mL
  half-life: 2.4 h
[2]; PBMC
  IC50: 0.0163 µM

## C[C@H](c1ccc2c(c1NC(=O)NS(=O)(=O)c1cc(C(C)(C)O)co1)CCC2)C1CC1 [Compound 7, (S)-N-((5-(1-cyclopropylethyl)-2,3-dihydro-1H-inden-4-yl)carbamoyl)-4-(2-hydroxypropan-2-yl)furan-2-sulfonamide]
[1]; [4]
  IC50: ≤ 0.1 µM
[2]; PBMC
  IC50: 0.0411 µM

## CC(c1cc(F)c2c(c1NC(=O)NS(=O)(=O)c1cc(C(C)(C)O)co1)CCC2)C1CC1 (stereo not drawn) [Compound 9, N-((5-(1-cyclopropylethyl)-7-fluoro-2,3-dihydro-1H-inden-4-yl)carbamoyl)-4-(2-hydroxypropan-2-yl)furan-2-sulfonamide]
[2]; PBMC
  IC50: 0.0256 µM

## Cc1oc(S(=N)(=O)NC(=O)Nc2c(CC3CCC3)ccc3c2CCC3)cc1C(C)(C)O (stereo not drawn) [Compound 21-1, RS- and SS-N-((5-(cyclobutylmethyl)-2,3-dihydro-1H-inden-4-yl)carbamoyl)-4-(2-hydroxypropan-2-yl)-5-methylfuran-2-sulfonimidamide]
[1]; THP-1 pyroptosis
  IC50: ≤ 0.1 µM
[3]; rat, in vivo, iv, 1 mg/kg
  AUC: 2.404 µg·h/mL
  Cl: 0.444 L/h/kg
  Vss: 0.371 L/kg
  t1/2: 0.65 h
[3]; rat, in vivo, po, 10 mg/kg
  AUC: 37.246 µg·h/mL
  Cmax: 12.717 µg/mL
  t1/2: 2.3 h
[2]
  IC50: 0.0262 µM

## Cc1oc(S(=O)(=O)NC(=O)Nc2c([C@@H](C)C3CC3)ccc3c2CCC3)cc1C(C)(C)O [Compound 23, (S)-N-((5-(1-cyclopropylethyl)-2,3-dihydro-1H-inden-4-yl)carbamoyl)-4-(2-hydroxypropan-2-yl)-5-methylfuran-2-sulfonamide]
[1]; [4]
  IC50: 0.1 to 0.5 µM
[2]; PBMC
  IC50: 0.005 µM

## [2H]c1cc([C@H](C)C2CC2)c(NC(=O)NS(=O)(=O)c2cc(C(C)(C)O)co2)c2c1CCC2 [Compound 29, (R)-N-((5-(1-cyclopropylethyl)-2,3-dihydro-1H-inden-4-yl-7-d)carbamoyl)-4-(2-hydroxypropan-2-yl)furan-2-sulfonamide]
[1]; [4]
  IC50: 0.1 to 0.5 µM
[2]; PBMC
  IC50: 0.0185 µM

## C[C@@H](c1cc(F)c2c(c1NC(=O)NS(=O)(=O)c1cc(C(C)(C)O)co1)CCC2)C1CC1 [Compound 41, (R)-N-((5-(1-cyclopropylethyl)-7-fluoro-2,3-dihydro-1H-inden-4-yl)carbamoyl)-4-(2-hydroxypropan-2-yl)furan-2-sulfonamide]
[1]; [4]
  IC50: ≤ 0.1 µM
[2]; PBMC
  IC50: 0.005 µM

## C[C@H](c1cc(F)c2c(c1NC(=O)NS(=O)(=O)c1cc(C(C)(C)O)co1)CCC2)C1CC1 [Compound 43, (S)-N-((5-(1-cyclopropylethyl)-7-fluoro-2,3-dihydro-1H-inden-4-yl)carbamoyl)-4-(2-hydroxypropan-2-yl)furan-2-sulfonamide]
[1]; [4]
  IC50: 0.5 to 1 µM
[2]; PBMC
  IC50: 0.0116 µM

## C[C@@H](c1ccc2c(c1NC(=O)NS(=O)(=O)c1cnc(C(C)(C)O)s1)CCC2)C1CC1 [Compound 87, (R)-N-((5-(1-cyclopropylethyl)-2,3-dihydro-1H-inden-4-yl)carbamoyl)-2-(2-hydroxypropan-2-yl)thiazole-5-sulfonamide]
[1]; [4]
  IC50: ≤ 0.1 µM
[2]; PBMC
  IC50: 0.0404 µM

## (RS, RC)- and (SS, RC)-N-((5-(1-cyclopropylethyl)-2,3-dihydro-1H-inden-4-yl-7-d)carbamoyl)-4-(2-hydroxypropan-2-yl)furan-2-sulfonimidamide [Compound 31-2]
[1]; THP-1 pyroptosis
  IC50: ≤ 0.1 µM
[2]
  IC50: 0.025 µM

## (RS, SC)- and (SS, SC)-N-((5-(1-cyclobutylethyl)-2,3-dihydro-1H-inden-4-yl)carbamoyl)-4-(2-hydroxypropan-2-yl)furan-2-sulfonimidamide [Compound 82-1]
[1]; THP-1 pyroptosis
  IC50: 0.1 to 0.5 µM
[3]; [5]
  AUC: 2.228 µg·h/mL
  Cl: 0.672 L/h/kg
  Vss: 0.379 L/kg
  t1/2: 0.70 h
[3]; SD rats
  F %: 74.0%
[3]; [6]
  AUC: 16.478 µg·h/mL
  Cmax: 5.883 µg/mL
  t1/2: 2.3 h
[2]
  IC50: 0.0052 µM

## RS- and SS-N-((5-(cyclobutylmethyl)-2,3-dihydro-1H-inden-4-yl-7-d)carbamoyl)-4-(2-hydroxypropan-2-yl)furan-2-sulfonimidamide [Compound 39-1]
[1]; THP-1 pyroptosis
  IC50: ≤ 0.1 µM
[2]
  IC50: 0.0317 µM
